Laboratory results as given in patent US8703953B2, “Aryl ether-base kinase inhibitors” (Bristol-Myers Squibb Company, priority 2012, dated 2014).
pIC50: −log10 of the molar value.

Experiments:
[1] = biological target: T1, AAK1 (full length human) (Homo sapiens, UniProt Q2M2I8); test: HEK281 Cell-Based Assay (HEK293F cells transfected with AAK1 and AP2M1; phospho-mu2 Western blot); details: 3 h
T1 construct: HA; expressed in transfected cells; host or cells: HEK293F
Description: HEK293F cells were cultured in media containing DMEM (Gibco, cat. #11965), 10% FBS (SAFC Biosciences, cat. #12103C), 1× GPS (glutamine, penicillin and streptomycin). On day one, cells were plated on a 10 cm dish so that they are ˜80% confluent at time of transfection. Roughly 12 million cells were in a 10 cm dish at time of transfection. On day two, each dish was transfected with 48 ug DNA and 144 μl Lipofectamine 2000 (Invitrogen, cat. #11668-019). The DNA was comprised of a mixture (per 10 cm dish) containing 3 ug AAK1/HA/pIRES (full length human, NCBI accession no. NP_055726.2), 45 μg Flag/AP2MI/pcDNA (full length human), and 1.5 ml OPTI-MEM. The Lipofectamine 2000 is made up of a mixture (per 10 cm dish) containing 144 μl Lipofectamine 2000 and 1.5 ml OPTI-MEM. Each mixture was transferred to individual 15 ml tubes and incubated at RT for 5 minutes, and then the two mixes were combined and incubated at RT for 20 minutes. Growth media was then aspirated from each 10 cm plate and replaced with 10 ml of DMEM+10% FBS (no GPS). Finally, 3 ml DNA/Lipofectamine mix was added to each 10 cm dish and mix gently followed by incubate of plate overnight at 37° C. and 5% CO2.
On day three, compounds were diluted in 100% DMSO at 1000× final concentration, followed by 3-fold serial dilutions for a total of 5 concentrations tested. Four compounds were tested per 10 cm dish. One ul of each compound dilution was then pipetted into a deep-well, 96-well plate, followed by addition of 500 μl DMEM+0.5% FBS into each well for a 2× final concentration of each compound. Cells were resuspended in a 10 cm dish by simple pipetting (HEK293 cells come off the plate that easy at this point) and then transferred to a 50 ml conical tube and pelleted by centrifugation at 1000 rpm for 5 min. Cell pellets were then resuspended in 2.75 ml DMEM+0.5% FBS per 10 cm dish and 100 μl of cell suspension transferred into each well of 96-well TC plate. Finally, 100 μl of 2× compound diluted in DMEM+0.5% FBS was then added into wells containing cell suspension for a 1× final concentration. Plates were then incubated at 37° C. and 5% CO2 for 3 hours followed by transferring of cell suspensions from each well into 12-tube PCR strips. The PCR strips were spun in a tip rack at 1000 rpm for 5 minutes to pellet cells and media was then removed by pipetting without disturbing the cell pellet.
To prepare for Western Blot analysis, cell pellets were resuspend in 40 ul 1× LDS-PAGE sample buffer (Invitrogen, cat. #NP0008)+2× Halt phophatase and protease inhibitor cocktail (Thermo Scientific, cat. #1861284), followed by sonicating each with microtip sonicator set at 5 for 8-10 seconds. Five ul of 10× NuPage Sample Reducing Agent (with […]) was to each sample followed by heat denaturing at 70C for 10 min on PCR machine. A total of 10 μl per sample was loaded into each lane of a 4-20% Tris-Glycine Criterion 26-well gel (Biorad, cat. #345-0034) for the phospho-mu2 blot and 10 μl per lane in a 4-12% Bis-Tris (+MES buffer) NuPAGE 26-well gel (Invitrogen, cat. #WG1403BX10) for the mu2 blot. For controls, 2 ng of phospho-mu2 or 20 ng mu2/Flag proteins were loaded in the last well of each gel. After SDS-PAGE, samples on each gel were transferred to PVDF membrane using an iBlot and membranes were blocked for one hour in TBST+5% milk, followed by wash 3× for 5-10 min with TBST. Criterion gels were probed with rabbit anti-phospho-mu2 (1:5000; a rabbit polyclonal antibody produced by New England Peptide and affinity purified at Lexicon) in TBST+5% BSA, whereas, NuPAGE gels were probed with mouse anti-Flag (1:500; Sigma, cat. #F1804) in TBST+5% milk, and these primary antibodies were incubated overnight at 4° C. on a rocker. […]

[2] = biological target: T2, GST-Xa-hAAK1 (Homo sapiens, UniProt Q2M2I8); test: AAK1 Kinase Assay (Caliper LabChip, fluoresceinated peptide substrate); type: biochemical; details: ATP 22 μM
T2 construct: made in house
Description: The assays were performed in U-bottom 384-well plates. The final assay volume was 30 μl prepared from 15 μl additions of enzyme and substrates (fluoresceinated peptide (5-FAM)-Aha-[…]-NH2 and ATP) and test compounds in assay buffer (10 mM Tris-HCL pH 7.4, 10 mM MgCl2, 0.01% Tween-20 and 1.0 mM DTT). The reactions were initiated by the combination of bacterially expressed, GST-Xa-hAAK1 with substrates and test compounds. The reactions were incubated at room temperature for 3 hours and terminated by adding 60 μl of 35 mM EDTA buffer to each sample. The reactions were analyzed on the Caliper LabChip 3000 (Caliper, Hopkinton, Mass.) by electrophoretic separation of the fluorescent substrate and phosphorylated product. […] The final concentration of reagents in the assays are ATP, 22 μM; (5-FAM)-Aha-[…]-NH2, 1.5 μM; GST-Xa-hAAK1, 3.5 nM; and DMSO, 1.6%. Dose response curves were generated to determine the concentration required inhibiting 50% of kinase activity (IC50). Compounds were dissolved at 10 mM in dimethylsulfoxide (DMSO) and evaluated at eleven concentrations. IC50 values were derived by non-linear regression analysis.

T1 sequence (Q2M2I8 whole entry): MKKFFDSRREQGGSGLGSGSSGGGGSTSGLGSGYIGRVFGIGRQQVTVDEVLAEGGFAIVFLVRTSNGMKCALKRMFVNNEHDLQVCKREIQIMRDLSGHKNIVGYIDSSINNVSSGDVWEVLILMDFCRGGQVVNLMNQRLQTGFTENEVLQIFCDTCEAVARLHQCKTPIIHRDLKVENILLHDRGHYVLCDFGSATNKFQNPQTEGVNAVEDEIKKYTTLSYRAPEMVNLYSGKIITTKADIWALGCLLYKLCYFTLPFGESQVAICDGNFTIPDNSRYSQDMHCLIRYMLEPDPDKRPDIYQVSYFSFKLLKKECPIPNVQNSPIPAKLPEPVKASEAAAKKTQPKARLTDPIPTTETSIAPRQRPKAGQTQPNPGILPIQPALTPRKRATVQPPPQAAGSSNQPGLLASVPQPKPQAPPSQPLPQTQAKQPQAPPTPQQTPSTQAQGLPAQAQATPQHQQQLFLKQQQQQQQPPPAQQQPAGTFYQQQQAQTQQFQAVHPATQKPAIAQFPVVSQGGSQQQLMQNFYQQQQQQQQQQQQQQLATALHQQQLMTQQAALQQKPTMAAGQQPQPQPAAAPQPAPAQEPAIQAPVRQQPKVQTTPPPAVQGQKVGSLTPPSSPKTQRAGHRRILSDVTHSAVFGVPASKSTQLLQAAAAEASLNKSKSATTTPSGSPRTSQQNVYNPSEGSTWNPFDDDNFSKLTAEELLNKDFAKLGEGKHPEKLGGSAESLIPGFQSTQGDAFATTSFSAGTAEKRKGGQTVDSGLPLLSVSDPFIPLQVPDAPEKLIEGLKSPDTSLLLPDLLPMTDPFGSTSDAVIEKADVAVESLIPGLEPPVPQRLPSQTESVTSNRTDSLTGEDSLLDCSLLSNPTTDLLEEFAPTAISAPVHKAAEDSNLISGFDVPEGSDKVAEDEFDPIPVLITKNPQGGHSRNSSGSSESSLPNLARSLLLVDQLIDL
T2 sequence (Q2M2I8 whole entry): as above

Structure (SMILES)	pIC50 ([1]; listed as IC50 ranges)	pIC50 ([2]; listed as IC50 ranges)	pIC50 ([1]; numeric values)	pIC50 ([2]; numeric values)
CC(=O)Nc1cc2c(cn1)COc1cc(OCC(N)CCC(F)(F)F)ccc1-2 (racemic) [Example 36, N-(8-((2-amino-5,5,5-trifluoropentyl)oxy)-5H-chromeno[3,4-c]pyridin-2-yl)acetamide]	8.00 to 9.00	7.00 to 8.00	–	–
CC(=O)Nc1cc2c(cn1)COc1cc(OCC(C)(N)CC(C)C)ccc1-2 (racemic) [Example 44, N-(8-(2-amino-2,4-dimethylpentyloxy)-5H-chromeno[3,4-c]pyridin-2-yl)acetamide]	7.00 to 8.00	8.00 to 9.00	–	–
CC(C)C[C@H](N)COc1ccc2c(c1)OC(C)c1cnccc1-2 (single isomer, unassigned) [Example 6a]	–	–	7.60	7.57
CC(C)C[C@H](N)COc1ccc2c(c1)OC(C)c1cnccc1-2 (single isomer, unassigned) [Example 6b]	–	–	8.37	8.04
CC(C)C[C@@H](N)COc1ccc2c(c1)OC(C)c1cnccc1-2 (single isomer, unassigned) [Example 7a]	–	–	< 6.52	7.09
CC(C)C[C@H](N)COc1ccc2c(c1)OC(C1CC1)c1cnccc1-2 (single isomer, unassigned) [Example 8b]	7.00 to 8.00	7.00 to 8.00	–	–
CC(C)C[C@@H](N)COc1ccc2c(c1)OC(C1CC1)c1cnccc1-2 (single isomer, unassigned) [Example 9a]	–	6.00 to 7.00	< 6.52	–
CCC1Oc2cc(OC[C@@H](N)CC(C)C)ccc2-c2ccncc21 (single isomer, unassigned) [Example 10a]	7.00 to 8.00	7.00 to 8.00	–	–
CC(C)C[C@H](N)COc1ccc2c(c1)OCc1cnccc1-2 [Example 5, (S)-1-(5H-chromeno[3,4-c]pyridin-8-yloxy)-4-methylpentan-2-amine]	–	–	8.08	8.48
CC(C)C[C@H](N)COc1ccc2c(c1)oc(=O)c1cnccc12 [Example 11, (S)-8-(2-amino-4-methylpentyloxy)-5H-chromeno[3,4-c]pyridin-5-one]	–	–	7.42	7.66
CC(=O)Nc1nccc2c1COc1cc(OC[C@@H](N)CC(C)C)ccc1-2 [Example 12, (S)-N-(8-(2-amino-4-methylpentyloxy)-5H-chromeno[3,4-c]pyridin-4-yl)acetamide]	7.00 to 8.00	7.00 to 8.00	–	–
CC(C)C[C@H](N)COc1ccc2c(c1)OCc1c-2ccnc1N [Example 13, (S)-8-((2-amino-4-methylpentyl)oxy)-5H-chromeno[3,4-c]pyridin-4-amine]	8.00 to 9.00	8.00 to 9.00	–	–
CC(C)C[C@H](N)COc1cc2c(cc1Br)-c1ccncc1CO2 [Example 14, (S)-1-(9-bromo-5H-chromeno[3,4-c]pyridin-8-yloxy)-4-methylpentan-2-amine]	8.00 to 9.00	8.00 to 9.00	–	–
CC(C)C[C@H](N)COc1ccc2c(c1)OC(C)c1c-2ccnc1N (stereo partly drawn) [Example 15, 8-(((S)-2-amino-4-methylpentyl)oxy)-5-methyl-5H-chromeno[3,4-c]pyridin-4-amine]	8.00 to 9.00	8.00 to 9.00	–	–
CC(C)C[C@H](N)COc1ccc2c(c1)OCc1cncc(F)c1-2 [Example 16, (S)-1-((1-fluoro-5H-chromeno[3,4-c]pyridin-8-yl)oxy)-4-methylpentan-2-amine]	8.00 to 9.00	8.00 to 9.00	–	–
CC(=O)Nc1cc2c(cn1)COc1cc(OC[C@@H](N)CC(C)C)ccc1-2 [Example 18, (S)-N-(8-(2-amino-4-methylpentyloxy)-5H-chromeno[3,4-c]pyridin-2-yl)acetamide]	7.00 to 8.00	8.00 to 9.00	–	–
CC(=O)Nc1cc2c(cn1)COc1cc(OC[C@@H](N)CC(C)C)c(Cl)cc1-2 [Example 32, (S)-N-(8-((2-amino-4-methylpentyl)oxy)-9-chloro-5H-chromeno[3,4-c]pyridin-2-yl)acetamide]	–	–	< 7.00	7.18
CC(C)C[C@H](N)COc1ccc2c(c1)OCc1cnc(N)cc1-2 [Example 33, (S)-8-(2-amino-4-methylpentyloxy)-5H-chromeno[3,4-c]pyridin-2-amine]	7.00 to 8.00	7.00 to 8.00	–	–
CC(=O)Nc1cc2c(cn1)COc1c-2ccc(OC[C@@H](N)CC(C)C)c1C [Example 35, (S)-N-(8-((2-amino-4-methylpentyl)oxy)-7-methyl-5H-chromeno[3,4-c]pyridin-2-yl)acetamide]	> 9.00	> 9.00	–	–
COc1c(OC[C@@H](N)CC(C)C)ccc2c1OCc1cnc(NC(C)=O)cc1-2 [Example 37, (S)-N-(8-((2-amino-4-methylpentyl)oxy)-7-methoxy-5H-chromeno[3,4-c]pyridin-2-yl)acetamide]	8.00 to 9.00	7.00 to 8.00	–	–
CC(=O)Nc1cc2c(cn1)COc1c-2ccc(OC[C@@H](N)CC(C)C)c1C(F)F [Example 38, (S)-N-(8-(2-amino-4-methylpentyloxy)-7-(difluoromethyl)-5H-chromeno[3,4-c]pyridin-2-yl)acetamide]	8.00 to 9.00	> 9.00	–	–
CC(=O)Nc1cc2c(cn1)COc1c-2ccc(OC[C@@H](N)CC(C)C)c1F [Example 41, (S)-N-(8-((2-amino-4-methylpentyl)oxy)-7-fluoro-5H-chromeno[3,4-c]pyridin-2-yl)acetamide]	–	–	8.68	9.52
CC(C)C[C@H](N)COc1ccc2c(c1)OCc1cnc(NC(=O)C3CC3)cc1-2 [Example 42, (S)-N-(8-(2-amino-4-methylpentyloxy)-5H-chromeno[3,4-c]pyridin-2-yl)cyclopropanecarboxamide]	–	–	8.68	9.30
COC(=O)Nc1cc2c(cn1)COc1cc(OC[C@@H](N)CC(C)C)ccc1-2 [Example 43, (S)-methyl 8-(2-amino-4-methylpentyloxy)-5H-chromeno[3,4-c]pyridin-2-ylcarbamate]	8.00 to 9.00	8.00 to 9.00	–	–
